Test results taken from the Kinase Knowledgebase extract (Sharma et al. 2016).

Molecular target: MAPK14 (UniProt Q16539)
Experiment: Inhibition of MAPK14 Kinase Activity

Chain of MAPK14 (Q16539 whole entry, looked up): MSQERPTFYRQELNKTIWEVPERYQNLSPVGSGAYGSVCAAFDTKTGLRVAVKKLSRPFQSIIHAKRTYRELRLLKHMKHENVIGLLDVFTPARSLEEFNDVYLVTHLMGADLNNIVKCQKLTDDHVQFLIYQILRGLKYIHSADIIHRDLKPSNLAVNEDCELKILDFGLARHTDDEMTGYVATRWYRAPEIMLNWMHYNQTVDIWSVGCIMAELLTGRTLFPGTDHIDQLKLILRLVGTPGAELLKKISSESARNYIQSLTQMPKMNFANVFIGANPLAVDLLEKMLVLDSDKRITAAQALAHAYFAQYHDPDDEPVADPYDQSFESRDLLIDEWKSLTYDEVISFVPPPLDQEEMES

| Compound | IC50 [nM] |
| --- | --- |
| COc1ccc(OC(F)(F)F)cc1NC(=O)Nc1ccc(Oc2cc(C)nc(CN3CCCC3)n2)c2ccccc12 | < 1000 |
| COc1ccc(OC(F)(F)F)cc1NC(=O)Nc1ccc(Oc2cc(C)nc(CN(C)C)n2)c2ccccc12 | < 1000 |
| COc1ccc(C(C(F)(F)F)C(F)(F)F)cc1NC(=O)Nc1ccc(Oc2cc(C)nc(CN3CCOCC3)n2)c2ccccc12 | < 1000 |
| COc1ccc(C(C(F)(F)F)C(F)(F)F)cc1NC(=O)Nc1ccc(Oc2cc(C)nc(NCCN(C)C)n2)c2ccccc12 | < 1000 |
| COc1ccc(OC(F)(F)F)cc1NC(=O)Nc1ccc(Oc2cc(C)nc(NCCN(C)C)n2)c2ccccc12 | < 1000 |
| COc1ccc(CC(F)(F)F)cc1NC(=O)Nc1ccc(Oc2cc(C)nc(NCCCN(C)C)n2)c2ccccc12 | < 1000 |
| COc1ccc(CC(F)(F)F)cc1NC(=O)Nc1ccc(Oc2cc(C)nc(N)n2)c2ccccc12 | < 1000 |
| COc1nc(C)cc(Oc2ccc(NC(=O)Nc3cc(C(F)(F)F)ccc3OC)c3ccccc23)n1 | < 1000 |
| COc1ccc(OC(F)(F)F)cc1NC(=O)Nc1ccc(Oc2cc(C)nc(NCCCN3CCOCC3)n2)c2ccccc12 | < 1000 |
| COc1ccc(C(F)(F)F)cc1NC(=O)Nc1ccc(Oc2cc(C)nc(CN(C)C)n2)c2ccccc12 | < 1000 |
| COc1ccc(C(F)(F)F)cc1NC(=O)Nc1ccc(Oc2cc(C)nc(NCC3CCCO3)n2)c2ccccc12 (centres undefined) | < 1000 |
| COc1ccc(C(F)(F)F)cc1NC(=O)Nc1ccc(Oc2cc(C)nc(NCCN(C)C)n2)c2ccccc12 | < 1000 |
| COc1ccc(C(F)(F)F)cc1NC(=O)Nc1ccc(Oc2cc(C)nc(CN3CCOCC3)n2)c2ccccc12 | < 1000 |
| COc1ccc(C(F)(F)F)cc1NC(=O)Nc1ccc(Oc2cc(C)nc(NCC(O)CO)n2)c2ccccc12 (centres undefined) | < 1000 |
| COc1ccc(C(F)(F)F)cc1NC(=O)Nc1ccc(Oc2cc(C)nc(CN3CCN(C)CC3)n2)c2ccccc12 | < 1000 |
| COc1ccc(CC(F)(F)F)cc1NC(=O)Nc1ccc(Oc2cc(C)nc(NCCCN3CCOCC3)n2)c2ccccc12 | < 1000 |
| COc1ccc(C(F)(F)F)cc1NC(=O)Nc1ccc(Oc2cc(C)nc(NCC3CC3)n2)c2ccccc12 | < 1000 |
| COc1ccc(C(F)(F)F)cc1NC(=O)Nc1ccc(Oc2cc(C)nc(NC3CC3)n2)c2ccccc12 | < 1000 |
| COc1ccc(C(F)(F)F)cc1NC(=O)Nc1ccc(Oc2cc(C)nc(N)n2)c2ccccc12 | < 1000 |
| COc1ccc(OC(F)(F)F)cc1NC(=O)Nc1ccc(Oc2cc(C)nc(CN3CCOCC3)n2)c2ccccc12 | < 1000 |
| COc1ccc(C(F)(F)F)cc1NC(=O)Nc1ccc(Oc2cc(C)nc(NC(C)C)n2)c2ccccc12 | < 1000 |
| COc1ccc(CC(F)(F)F)cc1NC(=O)Nc1ccc(Oc2cc(C)nc(OCC3CCN(C)CC3)n2)c2ccccc12 | < 1000 |
| COc1ccc(OC(F)(F)F)cc1NC(=O)Nc1ccc(Oc2cc(C)nc(OCCn3ccnc3)n2)c2ccccc12 | < 1000 |
| CNc1nc(C)cc(Oc2ccc(NC(=O)Nc3cc(C(F)(F)F)ccc3OC)c3ccccc23)n1 | < 1000 |

Other lines, results leading:

| IC50 [nM] | Compound |
| --- | --- |
| < 1000 | COCCNc1nc(C)cc(Oc2ccc(NC(=O)Nc3cc(OC(F)(F)F)ccc3OC)c3ccccc23)n1 |
| < 1000 | COc1ccc(C(F)(F)F)cc1NC(=O)Nc1ccc(Oc2cc(C)nc(NCCN3CCCC3)n2)c2ccccc12 |
| < 1000 | CCNc1nc(C)cc(Oc2ccc(NC(=O)Nc3cc(C(F)(F)F)ccc3OC)c3ccccc23)n1 |
| < 1000 | COc1ccc(C(C)C(F)(F)F)cc1NC(=O)Nc1ccc(Oc2cc(C)nc(N)n2)c2ccccc12 (centres undefined) |
| < 1000 | COc1c(NC(=O)Nc2ccc(Oc3cc(C)nc(C)n3)c3ccccc23)cc(C(F)(F)F)cc1NS(C)(=O)=O |
| < 1000 | CCNc1nc(C)cc(Oc2ccc(NC(=O)Nc3cc(OC(F)(F)F)ccc3OC)c3ccccc23)n1 |
| < 1000 | COc1ccc(OC(F)(F)F)cc1NC(=O)Nc1ccc(Oc2cc(C)nc(CN3CCN(C)CC3)n2)c2ccccc12 |
| < 1000 | COCCNc1nc(C)cc(Oc2ccc(NC(=O)Nc3cc(C(F)(F)F)ccc3OC)c3ccccc23)n1 |
| < 1000 | COc1ccc(C(F)(F)F)cc1NC(=O)Nc1ccc(Oc2cc(C)nc(NCCN3CCOCC3)n2)c2ccccc12 |
| < 1000 | COc1ccc(OC(F)(F)F)cc1NC(=O)Nc1ccc(Oc2cc(C)nc(NCCN3CCCC3)n2)c2ccccc12 |
| < 1000 | COc1ccc(C(F)(F)C(F)(F)F)cc1NC(=O)Nc1ccc(Oc2cc(C)nc(N)n2)c2ccccc12 |
| < 1000 | COc1ccc(C(C(F)(F)F)C(F)(F)F)cc1NC(=O)Nc1ccc(Oc2cc(C)nc(N)n2)c2ccccc12 |
| < 1000 | COCC(C)Nc1nc(C)cc(Oc2ccc(NC(=O)Nc3cc(C(F)(F)F)ccc3OC)c3ccccc23)n1 (centres undefined) |
| < 1000 | CNc1nc(C)cc(Oc2ccc(NC(=O)Nc3cc(OC(F)(F)F)ccc3OC)c3ccccc23)n1 |
| < 1000 | COc1ccc(C(F)(F)F)cc1NC(=O)Nc1ccc(Oc2cc(C)nc(C)n2)c2ccccc12 |
